Results taken from US9006487B2, “Amine-containing lipids and uses thereof” (Massachusetts Institute of Technology, priority 2005, dated 2015).

Tested on: cos-7 cells
Experiment: DNA transfection: luciferase expression relative to Lipofectamine 2000
Type: cell-based
Settings: for Luciferase expression as a percentage of that achieved using Lipofectamine 2000: 300 ng Luciferase DNA per well; for Luciferase expression as a percentage of that achieved using Lipofectamine 2000 / % of the luciferase activity obtained from the use of Lipofectamine 2000: luciferase assay after 48 hours; for % of the luciferase activity obtained from the use of Lipofectamine 2000: 300 ng DNA per well; for luciferase expression (second part of table, values relative to LIPO2000): 300 ng of DNA per well
Summary of the method: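 Lipid/DNA complexes, 300 ng luciferase DNA per well at 2.5-25 w/w lipid:DNA, were formed in sodium acetate/Optimem and added to overnight-seeded cos-7 cells. Luciferase was measured by Bright-Glo luminescence after 48 hours and quantified against an enzyme standard curve. Values are expressed as % of Lipofectamine 2000 at 2.5 w/w.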

Row | Structure (SMILES) | Luciferase expression as a percentage of that achieved using Lipofectamine 2000 (lipid/DNA 2.5 w/w) | Luciferase expression as a percentage of that achieved using Lipofectamine 2000 (lipid/DNA 5 w/w) | Luciferase expression as a percentage of that achieved using Lipofectamine 2000 (lipid/DNA 10 w/w) | Luciferase expression as a percentage of that achieved using Lipofectamine 2000 (lipid/DNA 15 w/w) | Luciferase expression as a percentage of that achieved using Lipofectamine 2000 (lipid/DNA 20 w/w) | Luciferase expression as a percentage of that achieved using Lipofectamine 2000 (lipid/DNA 25 w/w) | further results
1 | CCCCCCCCCCOC(=O)CCN(CCC(=O)OCCCCCCCCCC)C[C@@H](C)O [LB21] | 0.7% | 0.8% | 0.7% | 0.7% | 0.7% | 0.8% | 
2 | CCCCCCCCCCCCCCOC(=O)CCN(CCN(CCC(=O)OCCCCCCCCCCCCCC)C(C)C)C(C)C [LF62] | 0.1% | 0.1% | 0.2% | 0.1% | 0.4% | 0.2% | 
3 | CCCCCCCCCCCCOC(=O)CCN(CCCCO)CCC(=O)OCCCCCCCCCCCC [LD28] |  |  | 1.7% | 8.5% |  |  | 
4 | CCCCCCCCCCCCCCCOC(=O)CCN(CCC(=O)OCCCCCCCCCCCCCCC)CC(C)(C)CO [LG33] | 0.1% | 0.1% | 0.1% | 0.1% | 0.1% | 0.1% | 
5 | CCCCCCCCCCCCCCOC(=O)CCN(CCC(=O)OCCCCCCCCCCCCCC)CCN(CC)CC [LF75] | 0.7% | 1.0% | 0.7% | 1.9% | 1.7% | 1.7% | 
6 | CCCCCCCCCCCCCCOC(=O)CCN(CCC(=O)OCCCCCCCCCCCCCC)C(CC)(CO)CO [LF34] | 0.1% | 0.3% | 1.1% | 0.5% | 0.2% | 0.3% | 
7 | CCCCCCCCCCCCCCOC(=O)CCN(CCC(=O)OCCCCCCCCCCCCCC)CC1COC(C)(C)O1 (stereo not shown) [LF7] | 0.1% | 0.1% | 0.0% | 0.0% | 0.1% | 0.1% | 
8 | CCCCCCCCCCCCOC(=O)CCN1CCCN(CCC(=O)OCCCCCCCCCCCC)CC1 [LD70] | 0.1% | 0.1% | 0.6% | 0.6% | 0.6% | 0.6% | 
9 | CCCCCCCCCCOC(=O)CCN(CCC(=O)OCCCCCCCCCC)CC(O)CO (stereo not shown) [LB24] | 0.1% | 0.2% | 0.4% | 0.1% | 0.1% | 0.1% | 
10 | CCCCCCCCCCCCOC(=O)CC[N+](C)(CCCCO)CCC(=O)OCCCCCCCCCCCC.[I-] [QD28] |  |  | 0.1% | 0.1% |  |  | 
11 | CCCCCCCCCCCCCCCOC(=O)CC[N+](C)(CCC[N+](C)(CCO)CCO)CCC(=O)OCCCCCCCCCCCCCCC [QG87] |  |  |  |  |  |  | % of the luciferase activity obtained from the use of Lipofectamine 2000 (2.5 w/w lipid to DNA): 89.0%; % of the luciferase activity obtained from the use of Lipofectamine 2000 (5 w/w lipid to DNA): 94.0%; % of the luciferase activity obtained from the use of Lipofectamine 2000 (10 w/w lipid to DNA): 42.4%; % of the luciferase activity obtained from the use of Lipofectamine 2000 (15 w/w lipid to DNA): 64.7%; % of the luciferase activity obtained from the use of Lipofectamine 2000 (20 w/w lipid to DNA): 62.1%; % of the luciferase activity obtained from the use of Lipofectamine 2000 (25 w/w lipid to DNA): 44.1%; luciferase expression (second part of table, values relative to LIPO2000) (lipid/DNA 2.5 w/w): 89.0; luciferase expression (second part of table, values relative to LIPO2000) (lipid/DNA 5 w/w): 94.0; luciferase expression (second part of table, values relative to LIPO2000) (lipid/DNA 10 w/w): 42.4; luciferase expression (second part of table, values relative to LIPO2000) (lipid/DNA 15 w/w): 64.7; luciferase expression (second part of table, values relative to LIPO2000) (lipid/DNA 20 w/w): 62.1; luciferase expression (second part of table, values relative to LIPO2000) (lipid/DNA 25 w/w): 44.1
12 | CCCCCCCCCCCCCCOC(=O)CCN(CCCN(CCO)CCO)CCC(=O)OCCCCCCCCCCCCCC [LF87] | 19.4% | 11.3% | 30.2% | 13.3% | 11.0% | 10.0% | 
13 | CCCCCCCCCCCCNC(=O)CCN(CCCN(CCO)CCO)CCC(=O)NCCCCCCCCCCCC [ND87] | 0.0% | 0.0% | 0.0% | 0.0% | 0.0% | 0.0% | 
14 | CCCCCCCCCCCCCCOC(=O)CCN(CCCO)CCC(=O)OCCCCCCCCCCCCCC [LF20] | 0.2% | 0.4% | 0.3% | 0.2% | 0.1% | 0.1% | 
15 | CCCCCCCCCCCCCCOC(=O)CCN(CCC(=O)OCCCCCCCCCCCCCC)CCN1CCCC1 [LF76] | 1.7% | 5.6% | 9.8% | 24.3% | 22.2% | 19.5% | 
16 | CCCCCCCCCCCCCCOC(=O)CCN(CCC(=O)OCCCCCCCCCCCCCC)C(C)(CO)CO [LF26] | 0.1% | 0.2% | 0.7% | 0.1% | 0.1% | 0.3% | 
17 | CCCCCCCCCCCCCCOC(=O)CCN(CCC(=O)OCCCCCCCCCCCCCC)CC(O)CO (stereo not shown) [LF24] | 0.1% | 0.1% | 0.1% | 0.2% | 0.3% | 0.3% | 
18 | CCCCCCCCCCCCCCOC(=O)CCN(CCC(=O)OCCCCCCCCCCCCCC)CCN1CCCCC1 [LF82] | 0.4% | 0.3% | 0.7% | 0.5% | 0.6% | 0.8% | 
19 | CCCCCCCCCCCCOC(=O)CCN(CCCN(CC)CC)CCC(=O)OCCCCCCCCCCCC [LD81] | 0.1% | 0.1% | 15.2% | 7.6% | 5.4% | 2.3% | 
20 | CCCCCCCCCCCCCOC(=O)CCN(CCC(=O)OCCCCCCCCCCCCC)CCN(CCO)CCO [LE86] |  |  |  |  |  |  | % of the luciferase activity obtained from the use of Lipofectamine 2000 (2.5 w/w lipid to DNA): 31.1%; % of the luciferase activity obtained from the use of Lipofectamine 2000 (5 w/w lipid to DNA): 22.7%; % of the luciferase activity obtained from the use of Lipofectamine 2000 (10 w/w lipid to DNA): 22.6%; % of the luciferase activity obtained from the use of Lipofectamine 2000 (15 w/w lipid to DNA): 2.5%; % of the luciferase activity obtained from the use of Lipofectamine 2000 (20 w/w lipid to DNA): 0.0%; % of the luciferase activity obtained from the use of Lipofectamine 2000 (25 w/w lipid to DNA): 0.0%
